One may read the IC50 as the concentration that gives 50% inhibition. Low values mean inhibition by little substance, high ones a need for much substance.

The target of the assay is PL^pro (Severe acute respiratory syndrome coronavirus 2, UniProt P0DTD1). In words: FRET peptide cleavage assay. It is filed as biochemical.
`COc1ccc2nc3cc(Cl)ccc3c(Nc3ccc(O)cc3)c2c1` [compound 2, 4-[(6-chloro-2-methoxyacridin-9-yl)amino]phenol] registered an IC50 above 20 µM.
Compound `COc1ccc2nc3cc(Cl)ccc3c(Nc3cc(CN(C)C)c(O)c(CN(C)C)c3)c2c1` [compound 3, 4-[(6-chloro-2-methoxyacridin-9-yl)amino]-2,6-bis[(dimethylamino)methyl]phenol] gave an IC50 of 3.28 ± 0.4 µM.
Turning to `COc1ccc2nc3cc(Cl)ccc3c(Nc3ccc(O)c(CN4CCCC4)c3)c2c1` [compound 4, 4-[(6-chloro-2-methoxyacridin-9-yl)amino]-2-(pyrrolidin-1-ylmethyl)phenol], the IC50 came out at 2.56 ± 0.28 µM.
`COc1ccc2nc3cc(Cl)ccc3c(Nc3cc(CN4CCCC4)c(O)c(CN4CCCC4)c3)c2c1` [compound 5, 4-[(6-chloro-2-methoxyacridin-9-yl)amino]-2,6-bis(pyrrolidin-1-ylmethyl)phenol] came in with an IC50 of 2.44 ± 0.53 µM.
For `COc1ccc2nc3cc(Cl)ccc3c(O)c2c1` [compound 6, 6-chloro-2-methoxyacridin-9-ol], the IC50 was above 20 µM.
`COc1ccc2nc3cc(Cl)ccc3c(N3CCOCC3)c2c1` [compound 7, 6-chloro-2-methoxy-9-morpholin-4-ylacridine] gave an IC50 above 20 µM.
Compound `N#Cc1c(N2CCOCC2)ncc2cc3ccccc3nc12` [compound 9, 3-morpholin-4-ylbenzo[b]-1,6-naphthyridine-4-carbonitrile] displayed an IC50 above 20 µM.
Turning to `N#Cc1c(N2CCOCC2)ncc2c(=O)c3ccccc3[nH]c12` [compound 10, 3-morpholin-4-yl-10-oxo-5,10-dihydrobenzo[b]-1,6-naphthyridine-4-carbonitrile], the IC50 is above 20 µM.

(Values after doi:10.1101/2021.09.30.462449v1 (biorxiv, 2021).)
